Columns and labels:
Format in all cases: cell-based
[1] = test system: EGFR Del19/T790M/C797S (H1975-clone #28); test: EGFR degradation HTRF assay, H1975-clone #28 DTC cells; details: H1975 # 28 DTC cells; for DC50: EGFR degradation, IC50 (DC50) from curve fit, read-out: DC50(nM) H1975 # 28 DTC; for Dmax (%) H1975 # 28 DTC: maximum percentage of inhibition (degradation)
Procedure, shortened: (§1)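 Cells were dosed on day 2 with an 8-point, 5-fold dilution series starting at 10 uM final and incubated 16h at 37° C. After lysis for 1 hour, HTRF antibodies were added overnight at room temperature and the plate was read at 665/620 nm. Degradation was normalised to DMSO wells and fitted for DC50 and Dmax.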

[2] = target: T1, EGFR L858R/T790M/C797S (BaF3-LTC cells) (Homo sapiens, UniProt P00533, C797S/L858R/T790M); test: EGFR degradation HTRF assay, BaF3-LTC cells; details: BaF3-LTC cells; for DC50: EGFR degradation, IC50 (DC50) from curve fit, read-out: DC50(nM) BaF3-LTC
T1 construct: expressed in transfected cells; host or cells: BaF3
Procedure, shortened: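 EGFR remaining after a 16 h, 37 °C exposure (8 doses, 5-fold steps from 10 uM final, 0.2% DMSO) was quantified by HTRF antibodies in cell lysate. Percent inhibition relative to DMSO control was fitted by four-parameter logistic to give DC50; Dmax denotes maximal degradation.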

[3] = test system: EGFR Del19/C797S (H1975-clone #23); test: EGFR degradation HTRF assay, H1975-clone #23 DC cells; details: 16h treatment; for H1975 #23 DC Dmax (%): maximum percentage of degradation; for DC50: H1975 #23 DC, read-out: H1975 #23 DC DC50
Procedure, shortened: as §1

[4] = target: T2, EGFR L858R/C797S (BaF3 LC cells) (Homo sapiens, UniProt P00533, C797S/L858R); test: EGFR degradation HTRF assay, BaF3 LC cells; details: BaF3 LC, 16h treatment; for DC50: read-out: BaF3 LC DC50
T2 construct: expressed in transfected cells; host or cells: BaF3
T2 sequence (P00533 25-1210 C797S/L858R): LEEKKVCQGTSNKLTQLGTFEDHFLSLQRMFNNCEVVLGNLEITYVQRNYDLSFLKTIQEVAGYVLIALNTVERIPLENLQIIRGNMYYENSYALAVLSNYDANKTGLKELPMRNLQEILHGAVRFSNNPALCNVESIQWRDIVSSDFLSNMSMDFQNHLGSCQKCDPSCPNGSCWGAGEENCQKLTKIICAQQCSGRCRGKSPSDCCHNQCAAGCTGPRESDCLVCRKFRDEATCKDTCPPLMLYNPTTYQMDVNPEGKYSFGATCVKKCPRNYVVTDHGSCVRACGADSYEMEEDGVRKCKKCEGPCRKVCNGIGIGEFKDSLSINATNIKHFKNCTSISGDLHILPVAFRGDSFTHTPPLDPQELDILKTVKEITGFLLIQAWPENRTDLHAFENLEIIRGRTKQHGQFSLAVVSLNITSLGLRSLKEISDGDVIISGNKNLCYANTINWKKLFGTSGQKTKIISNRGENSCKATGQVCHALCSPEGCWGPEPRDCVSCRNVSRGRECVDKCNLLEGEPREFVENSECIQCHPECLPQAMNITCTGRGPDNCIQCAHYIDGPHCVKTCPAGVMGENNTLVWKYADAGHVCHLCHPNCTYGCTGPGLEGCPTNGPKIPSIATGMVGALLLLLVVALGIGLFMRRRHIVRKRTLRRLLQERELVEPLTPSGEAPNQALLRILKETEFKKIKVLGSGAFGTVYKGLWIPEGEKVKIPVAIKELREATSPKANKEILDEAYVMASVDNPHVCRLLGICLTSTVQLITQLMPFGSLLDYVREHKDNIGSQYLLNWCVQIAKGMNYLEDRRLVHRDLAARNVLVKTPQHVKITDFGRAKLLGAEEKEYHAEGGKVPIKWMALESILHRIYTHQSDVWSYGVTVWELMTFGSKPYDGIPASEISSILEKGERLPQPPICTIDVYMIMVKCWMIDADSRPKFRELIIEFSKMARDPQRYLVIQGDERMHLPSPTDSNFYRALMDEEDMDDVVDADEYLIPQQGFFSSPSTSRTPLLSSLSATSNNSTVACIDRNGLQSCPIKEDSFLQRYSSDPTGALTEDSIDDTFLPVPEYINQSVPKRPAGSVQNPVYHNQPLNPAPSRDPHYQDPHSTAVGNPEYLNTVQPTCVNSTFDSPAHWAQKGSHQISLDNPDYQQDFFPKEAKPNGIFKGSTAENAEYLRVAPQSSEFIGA

T1 sequence (P00533 25-1210 T790M/C797S/L858R): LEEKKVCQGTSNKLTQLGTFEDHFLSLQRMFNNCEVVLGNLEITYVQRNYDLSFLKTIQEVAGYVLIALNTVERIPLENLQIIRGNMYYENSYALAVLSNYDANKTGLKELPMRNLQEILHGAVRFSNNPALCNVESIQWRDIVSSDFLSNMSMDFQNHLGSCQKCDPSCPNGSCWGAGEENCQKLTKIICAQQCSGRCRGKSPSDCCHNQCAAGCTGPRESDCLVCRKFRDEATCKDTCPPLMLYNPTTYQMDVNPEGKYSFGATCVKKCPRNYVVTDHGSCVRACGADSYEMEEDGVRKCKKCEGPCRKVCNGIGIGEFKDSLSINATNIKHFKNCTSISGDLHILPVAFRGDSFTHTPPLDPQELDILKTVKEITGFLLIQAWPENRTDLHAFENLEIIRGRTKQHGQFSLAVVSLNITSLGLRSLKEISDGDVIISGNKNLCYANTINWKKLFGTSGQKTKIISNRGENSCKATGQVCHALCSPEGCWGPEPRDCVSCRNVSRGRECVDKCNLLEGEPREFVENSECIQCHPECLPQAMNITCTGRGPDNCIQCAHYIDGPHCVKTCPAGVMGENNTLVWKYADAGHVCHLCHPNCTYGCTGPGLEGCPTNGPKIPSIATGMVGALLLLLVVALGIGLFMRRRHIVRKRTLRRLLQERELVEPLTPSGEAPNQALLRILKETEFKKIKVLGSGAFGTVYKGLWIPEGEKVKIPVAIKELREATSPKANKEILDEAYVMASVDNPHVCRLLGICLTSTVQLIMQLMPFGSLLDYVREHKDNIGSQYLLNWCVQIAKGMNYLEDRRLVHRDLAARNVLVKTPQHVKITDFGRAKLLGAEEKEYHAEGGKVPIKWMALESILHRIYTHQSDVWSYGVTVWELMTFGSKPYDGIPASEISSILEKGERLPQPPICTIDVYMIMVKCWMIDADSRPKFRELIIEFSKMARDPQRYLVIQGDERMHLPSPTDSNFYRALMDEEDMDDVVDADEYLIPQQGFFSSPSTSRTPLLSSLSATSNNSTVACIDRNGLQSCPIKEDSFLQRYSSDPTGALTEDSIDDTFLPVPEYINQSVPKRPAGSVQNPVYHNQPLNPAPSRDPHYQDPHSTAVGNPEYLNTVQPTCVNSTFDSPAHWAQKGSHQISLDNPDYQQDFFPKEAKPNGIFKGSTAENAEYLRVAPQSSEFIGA

| SMILES | DC50 [1] [nM] | Dmax (%) H1975 # 28 DTC [1] [%] | DC50 [2] [nM] | H1975 #23 DC Dmax (%) [3] [%] | DC50 [3] [nM] | DC50 [4] [nM] | Dmax ([2]; maximum percentage of inhibition (degradation), read-out: Dmax (%) BaF3-LTC) [%] | Dmax ([4]; maximum percentage of degradation, read-out: BaF3 LC Dmax (%)) [%] |
| --- | --- | --- | --- | --- | --- | --- | --- | --- |
| CCc1cc(Nc2ncc(Br)c(Nc3ccc4nc(C)c(F)cc4c3P(C)(C)=O)n2)c(OC)cc1N1CCC(N2CCN(C(=O)[C@H]3CN(c4cc(F)c([C@H]5CCC(=O)NC5=O)c(F)c4)CC3(C)C)CC2)CC1 [Example 576, (R)-3-(4-((R)-4-(4-(1-(4-((5-bromo-4-((5-(dimethylphosphoryl)-3-fluoro-2-methylquinolin-6-yl)amino)pyrimidin-2-yl)amino)-2-ethyl-5-methoxyphenyl)piperidin-4-yl)piperazine-1-carbonyl)-3,3-dimethylpyrrolidin-1-yl)-2,6-difluorophenyl)piperidine-2,6-dione] | 2.8 | 81.93 | 12.1 | 77.19 | 3.59 | 15.8 | – | – |
| CCOc1cc(N2CCC(N3CCN(C(=O)[C@@H]4CCN(c5cc(F)c([C@H]6CCC(=O)NC6=O)c(F)c5)C4)CC3)CC2)c(CC)cc1Nc1ncc(Br)c(Nc2ccc3nc(C)c(F)cc3c2P(C)(C)=O)n1 [Example 577, (R)-3-(4-((R)-3-(4-(1-(4-((5-bromo-4-((5-(dimethylphosphoryl)-3-fluoro-2-methylquinolin-6-yl)amino)pyrimidin-2-yl)amino)-5-ethoxy-2-ethylphenyl)piperidin-4-yl)piperazine-1-carbonyl)pyrrolidin-1-yl)-2,6-difluorophenyl)piperidine-2,6-dione] | 1.08 | 87.91 | 8.4 | 64.13 | 7.94 | 53.8 | – | – |
| CCc1ccc2c(P(C)(C)=O)c(Nc3nc(Nc4cc(C)c(N5CCC(N6CCN(CCc7cccc8c7n(C)c(=O)n8C7CCC(=O)NC7=O)CC6)CC5)cc4OC4CC4)ncc3Br)ccc2n1 (centres unmarked) [Example 584, 3-(4-(2-(4-(1-(4-((5-bromo-4-((5-(dimethylphosphoryl)-2-ethylquinolin-6-yl)amino)pyrimidin-2-yl)amino)-5-cyclopropoxy-2-methylphenyl)piperidin-4-yl)piperazin-1-yl)ethyl)-3-methyl-2-oxo-2,3-dihydro-1H-benzo[d]imidazol-1-yl)piperidine-2,6-dione] | 0.634 | 79.5 | 2.72 | 70.66 | 2.7 | 4.9 | – | – |
| CCc1cc(Nc2ncc(Br)c(Nc3ccc4nc(NC(=O)C5CC5)ccc4c3P(C)(C)=O)n2)c(OC)cc1N1CCC(N2CCN(C(=O)[C@@H]3CCN(c4cc(F)c([C@H]5CCC(=O)NC5=O)c(F)c4)C3)CC2)CC1 [Example 587, N-(6-((5-bromo-2-((4-(4-(4-((R)-1-(4-((R)-2,6-dioxopiperidin-3-yl)-3,5-difluorophenyl)pyrrolidine-3-carbonyl)piperazin-1-yl)piperidin-1-yl)-5-ethyl-2-methoxyphenyl)amino)pyrimidin-4-yl)amino)-5-(dimethylphosphoryl)quinolin-2-yl)cyclopropanecarboxamide] | 0.765 | 87.02 | 2.19 | 87.43 | 6.14 | 14.6 | 89.2 | 87.8 |
| CCc1ncc2c(P(C)(C)=O)c(Nc3nc(Nc4cc(CC)c(N5CCC(N6CCN(CCc7cc(F)c([C@H]8CCC(=O)NC8=O)c(F)c7)CC6)CC5)cc4OC)ncc3Br)ccc2n1 [Example 589, (R)-3-(4-(2-(4-(1-(4-((5-bromo-4-((5-(dimethylphosphoryl)-2-ethylquinazolin-6-yl)amino)pyrimidin-2-yl)amino)-2-ethyl-5-methoxyphenyl)piperidin-4-yl)piperazin-1-yl)ethyl)-2,6-difluorophenyl)piperidine-2,6-dione] | 0.844 | 86.23 | 4.34 | 84.51 | 2.2 | 20.3 | – | – |
| CCOc1cc(N2CCC(N3CCN(CCc4cccc5c4n(CC)c(=O)n5C4CCC(=O)NC4=O)CC3)CC2)c(CC)cc1Nc1ncc(Br)c(Nc2cc(F)c3nc(CC)ccc3c2P(C)(C)=O)n1 (centres unmarked) [Example 643, 3-(4-(2-(4-(1-(4-((5-bromo-4-((5-(dimethylphosphoryl)-2-ethyl-8-fluoroquinolin-6-yl)amino)pyrimidin-2-yl)amino)-5-ethoxy-2-ethylphenyl)piperidin-4-yl)piperazin-1-yl)ethyl)-3-ethyl-2-oxo-2,3-dihydro-1H-benzo[d]imidazol-1-yl)piperidine-2,6-dione] | 2.48 | 65.15 | 3.86 | 73.67 | 1.45 | 3.97 | – | – |
| CCOc1cc(N2CCC(N3CCN(CCc4cccc5c4n(C)c(=O)n5C4CCC(=O)NC4=O)CC3)CC2)c(CC)cc1Nc1ncc(Br)c(Nc2ccc3nc(CC)ccc3c2P(C)(C)=O)n1 (centres unmarked) [Example 752, 3-(4-(2-(4-(1-(4-((5-bromo-4-((5-(dimethylphosphoryl)-2-ethylquinolin-6-yl)amino)pyrimidin-2-yl)amino)-5-ethoxy-2-ethylphenyl)piperidin-4-yl)piperazin-1-yl)ethyl)-3-methyl-2-oxo-2,3-dihydro-1H-benzo[d]imidazol-1-yl)piperidine-2,6-dione] | 1 | 77.12 | 6.34 | 78.99 | 1.76 | 2.23 | – | – |
| CCc1cc(Nc2ncc(Br)c(Nc3ccc4c(=O)n(CC)ncc4c3P(C)(C)=O)n2)c(OC)cc1N1CCC(N2CCN(CCc3cc(F)c([C@H]4CCC(=O)NC4=O)c(F)c3)CC2)CC1 [Example 753, (R)-3-(4-(2-(4-(1-(4-((5-bromo-4-((5-(dimethylphosphoryl)-2-ethyl-1-oxo-1,2-dihydrophthalazin-6-yl)amino)pyrimidin-2-yl)amino)-2-ethyl-5-methoxyphenyl)piperidin-4-yl)piperazin-1-yl)ethyl)-2,6-difluorophenyl)piperidine-2,6-dione] | 6.28 | 87.49 | 83.7 | 78.45 | 2.43 | 20.1 | – | – |
| CCc1ccc2c(P(C)(C)=O)c(Nc3nc(Nc4cc(CC)c(N5CCC(N6CCN(C(=O)[C@H]7CN(c8cc(F)c([C@H]9CCC(=O)NC9=O)c(F)c8)CC7(C)C)CC6)CC5)cc4OC)ncc3Br)ccc2n1 [Example 754, (R)-3-(4-((R)-4-(4-(1-(4-((5-bromo-4-((5-(dimethylphosphoryl)-2-ethylquinolin-6-yl)amino)pyrimidin-2-yl)amino)-2-ethyl-5-methoxyphenyl)piperidin-4-yl)piperazine-1-carbonyl)-3,3-dimethylpyrrolidin-1-yl)-2,6-difluorophenyl)piperidine-2,6-dione] | 3.22 | 86.62 | 13.4 | 71.73 | 5.6 | 36.1 | – | – |
| CCc1ccc2c(P(C)(C)=O)c(Nc3nc(Nc4cc(CC)c(N5CCC(N6CCN(C(=O)C7CN(c8cc(F)c([C@H]9CCC(=O)NC9=O)c(F)c8)C7)CC6)CC5)cc4OC)ncc3Br)ccc2n1 [Example 755, (R)-3-(4-(3-(4-(1-(4-((5-bromo-4-((5-(dimethylphosphoryl)-2-ethylquinolin-6-yl)amino)pyrimidin-2-yl)amino)-2-ethyl-5-methoxyphenyl)piperidin-4-yl)piperazine-1-carbonyl)azetidin-1-yl)-2,6-difluorophenyl)piperidine-2,6-dione] | 0.57 | 84.62 | 4.13 | 69.09 | 7.68 | 16.4 | – | – |
| CCc1cc(Nc2ncc(Br)c(Nc3ccc4c(=O)n(C)ncc4c3P(C)(C)=O)n2)c(OC)cc1N1CCC(N2CCN(CCc3cccc4c3C3(CC3)C(=O)N4C3CCC(=O)NC3=O)CC2)CC1 (centres unmarked) [Example 756, 3-(4′-(2-(4-(1-(4-((5-bromo-4-((5-(dimethylphosphoryl)-2-methyl-1-oxo-1,2-dihydrophthalazin-6-yl)amino)pyrimidin-2-yl)amino)-2-ethyl-5-methoxyphenyl)piperidin-4-yl)piperazin-1-yl)ethyl)-2′-oxospiro[cyclopropane-1,3′-indolin]-1′-yl)piperidine-2,6-dione] | 0.608 | 80.03 | 2.31 | 73.8 | 1.69 | 10.1 | – | – |
